{
  "source": "patent US12606568B2",
  "about": "“SMARCA degraders and uses thereof” (Kymera Therapeutics, Inc., priority 2020, dated 2026)",
  "format_in_all_cases": "cell-based",
  "key": {"SMARCA2 [1]": {"molecular_target": "T1, SMARCA2 (Homo sapiens, UniProt P51531)", "T1 sequence (P51531 whole entry)": "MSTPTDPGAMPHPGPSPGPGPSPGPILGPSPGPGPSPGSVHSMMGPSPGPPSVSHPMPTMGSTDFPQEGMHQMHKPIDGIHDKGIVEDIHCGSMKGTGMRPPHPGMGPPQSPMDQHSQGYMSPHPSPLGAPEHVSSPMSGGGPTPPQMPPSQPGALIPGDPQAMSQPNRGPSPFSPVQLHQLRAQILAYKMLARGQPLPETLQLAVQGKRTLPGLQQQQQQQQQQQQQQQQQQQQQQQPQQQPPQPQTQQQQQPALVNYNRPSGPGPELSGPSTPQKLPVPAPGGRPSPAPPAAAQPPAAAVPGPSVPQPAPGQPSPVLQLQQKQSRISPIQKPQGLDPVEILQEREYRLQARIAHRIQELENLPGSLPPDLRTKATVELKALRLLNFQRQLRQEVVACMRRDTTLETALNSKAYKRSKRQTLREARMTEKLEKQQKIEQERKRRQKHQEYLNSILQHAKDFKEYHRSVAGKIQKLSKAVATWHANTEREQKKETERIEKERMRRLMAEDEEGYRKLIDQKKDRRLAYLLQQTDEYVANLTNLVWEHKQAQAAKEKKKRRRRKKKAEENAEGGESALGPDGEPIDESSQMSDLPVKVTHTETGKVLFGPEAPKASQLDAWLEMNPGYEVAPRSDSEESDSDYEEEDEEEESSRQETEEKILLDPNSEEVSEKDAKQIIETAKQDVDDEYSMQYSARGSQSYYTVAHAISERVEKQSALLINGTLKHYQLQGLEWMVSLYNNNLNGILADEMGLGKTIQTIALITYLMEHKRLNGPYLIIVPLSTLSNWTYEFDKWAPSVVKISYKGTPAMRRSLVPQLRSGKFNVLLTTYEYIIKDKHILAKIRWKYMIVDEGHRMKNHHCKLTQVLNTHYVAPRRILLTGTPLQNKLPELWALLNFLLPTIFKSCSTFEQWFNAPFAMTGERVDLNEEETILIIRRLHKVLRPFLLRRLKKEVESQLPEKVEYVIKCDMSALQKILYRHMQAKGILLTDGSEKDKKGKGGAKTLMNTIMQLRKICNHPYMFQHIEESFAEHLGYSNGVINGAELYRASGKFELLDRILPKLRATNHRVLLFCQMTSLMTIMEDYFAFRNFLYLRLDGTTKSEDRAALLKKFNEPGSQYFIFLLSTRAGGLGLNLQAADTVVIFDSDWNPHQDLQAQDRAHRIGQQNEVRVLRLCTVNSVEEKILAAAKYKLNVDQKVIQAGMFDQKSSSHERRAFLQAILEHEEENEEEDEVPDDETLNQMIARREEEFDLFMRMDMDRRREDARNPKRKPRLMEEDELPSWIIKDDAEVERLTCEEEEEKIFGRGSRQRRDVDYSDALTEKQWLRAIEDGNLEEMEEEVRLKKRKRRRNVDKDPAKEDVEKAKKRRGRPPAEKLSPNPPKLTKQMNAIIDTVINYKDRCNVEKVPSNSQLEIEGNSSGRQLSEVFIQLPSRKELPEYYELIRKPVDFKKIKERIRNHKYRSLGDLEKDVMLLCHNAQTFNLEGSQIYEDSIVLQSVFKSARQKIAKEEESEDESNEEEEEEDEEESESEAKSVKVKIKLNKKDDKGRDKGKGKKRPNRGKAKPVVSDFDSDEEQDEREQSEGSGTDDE", "experiment": "SMARCA2 Western blot MV4-11 degradation", "parameters": "SMARCA2 and SMARCA4 protein degradation in MV4-11 cells; endogenous in cells; host or cells: MV4-11", "conditions": "24 h; for Dmax: MV4-11, MV4-11 cells, read-out: SMARCA2 MSD MV411 degradation 24 h: average Dmax %; for DC50: MV4-11 cells, read-out: SMARCA2 MSD MV411 degradation 24 h: Mean external-Abs DC50", "procedure": "(§1) Example 54. SMARCA2 and SMARCA 4 Western Blot MV4-11 Degradation\n(§2) Cells were seeded into 6-well plates (MV4-11: 4×10^6 cells/well/1 ml) and 1 ml of 2× compound solution was added into the well to make the final concentration and the plates were mixed well and incubated for 24 hours (No cytotoxicity was observed). The cell were collected with media and spun at 3000 rpm for 5 minutes. The supernatant was aspirated and the well and the cells were washed with cold PBS once and combined for centrifugation again; the supernatant aspirated again. 200 ul pre-chilled RIPA lysis buffer (Boston BioProducts BP-115D) with protease/phosphatase inhibitor (Roche 05892791001/Roche 04906837001) was directly added into the tube to lyze the cells for 20 minutes on ice. The cell lysate were collected into EP tubes and spun at 13000 rpm for 20 minutes and 72 ul supernatant was transferred to a fresh EP tube containing 18 ul of 5× loading buffer (Beyotime Bio P0015) to make the loading samples. The samples were heated to 100° C. for 10 minutes and cooled to RT and microcentrifuged. 20 ul of samples were loaded onto SDS-PAGE gel (Novex, WG1402BOX) and the gel was run at 80 V for 20 minutes and 120 V for 1.5 hours. The samples were electrotransfer to a NC membrane using wet-transfer method with 250 mA for 2.5 hours. The membrane was blocked with LICOR blocking buffer (LI-COR, 927-50000) for 1 hour. The membrane was washed three times with TBST (CST #9997S), 5 minutes each. Incubation was performed with primary antibody prepared in blocking buffer with 0.1% Tween-20 (Solarbio, P8220) at 4° C. overnight (Anti-SMARCA2/BRM antibody (ab15597) 1:500; Anti-BRG1 antibody [EPR3912] (ab108318) 1:1000; Rabbit anti-Baf180 antibody [EPR15860] (Abcam, ab196022) 1:1000; mouse anti-beta-Actin (8H10D10) (CST #3700) 1:10000). The membrane was washed three times with TBST, 5 minutes each. Incubation with secondary antibody was performed for 1 hour at RT (anti-rabbit IgG (Licor, 926-32211) 1:5000; anti-mouse IgG (LI-COR, 926-68070) 1:5000). The membrane was washed three times with TBST, 5 minutes each and lastly the LiCOR was read.\n(§3) The letter codes for SMARCA degradation potency (DC50) include: A (<100 nM), B (100-500 nM), C (501-1000 nM), and D (>1000 nM). The letter codes for the percentage of SMARCA degradation after 24 hours (Dmax %) include: A (>90% degradation), B (>70-90% degradation), C (50-70% degradation), and D (<50% degradation)."}, "SMARCA2 [2]": {"molecular_target": "T1, SMARCA2", "experiment": "MSD SMARCA2 degradation in A549 cell line", "parameters": "endogenous in cells", "conditions": "24 h; for Dmax: A549, A549 cells; for DC50: A549 cells, read-out: SMARCA2 MSD A549 degradation 24 h: Average external-Abs DC50", "procedure": "Example 53. MSD SMARCA2 Degradation in A549 Cell Line\nCells were seeded into 96-well plates (A549 cells: 2×10^4 cells/well/100 ul media) abd incubated overnight. The next day, 200 nl compound were added into the intermediate plate with Echo (Labcyte 550) from source plate containing a 3-fold serial dilution from top concentration of 1 mM. The culture medium was changed with 80 ul of fresh medium and 80 ul of 2× compound solution was added into the well to make a final concentration of 1000 nM, 333.3 nM, 111.1 nM, 37.04 nM, 12.35 nM, 4.115 nM, 1.372 nM, 0.457 nM, 0.152 nM and 0 nM (DMSO). The wells were mixed and then incubated for 24 hours. The media was aspirated from the cultures and 60 ul pre-chilled PIPA lysis buffer (Boston BioProducts BP-115D) with protease/phosphatase inhibitor (Roche 05892791001/Roche 04906837001) was added into the well to lyze the cells for 20 minutes at 4° C. The MSD plate (L15XA) was coated with 40 ul cell lysate and incubated at 4° C. overnight. The next day, the plate was washed three times with TBST (CST #9997S), 150 ul/well. The MSD plates was blocked with 150 ul blocking buffer per well and shaked for 1 hr at R^†, 600 rpm. The blocking buffer was 3% Blocker A (MSD, R93BA-4) in TBST. The MSD plate was washed three times with 150 ul/well of TBST and 25 ul/well of detection antibody (Rabbit anti-SMARCA2/BRM antibody, 100 μg/ml, ab223735) was added at final concentration of 1 ug/mi diluted in 1% o Blocking buffer and shaken for 1 hour at R^†, 600 rpm. The MSD plate was washed three times with 150 ul/well of TBST and 25 ul/well of SULFO-TAG anti-rabbit antibody (MSD, R32AB-1) was added at final concentration of 1 μg/ml diluted in […] Blocking buffer and shaken for 1 hour at R^†, 600 rpm. The MSD plate was washed three times with 150 ul/well of TBST and 150 ul/well of 2×MSD reading buffer diluted from 4× (MSD, R92TC-2) with water was added. Lastly, the MSD instrument was read.\nas §3, with “SMARCA2” for “SMARCA”, “% o)” for “%)”, “(>90% o” for “(>90%”, “(>70-90% o” for “(>70-90%”, “(50-70% o” for “(50-70%”"}, "SMARCA4": {"molecular_target": "T2, SMARCA4 (Homo sapiens, UniProt P51532)", "T2 construct": "SMARCA2 and SMARCA4 protein degradation in MV4-11 cells; endogenous in cells; host or cells: MV4-11", "T2 sequence (P51532 whole entry)": "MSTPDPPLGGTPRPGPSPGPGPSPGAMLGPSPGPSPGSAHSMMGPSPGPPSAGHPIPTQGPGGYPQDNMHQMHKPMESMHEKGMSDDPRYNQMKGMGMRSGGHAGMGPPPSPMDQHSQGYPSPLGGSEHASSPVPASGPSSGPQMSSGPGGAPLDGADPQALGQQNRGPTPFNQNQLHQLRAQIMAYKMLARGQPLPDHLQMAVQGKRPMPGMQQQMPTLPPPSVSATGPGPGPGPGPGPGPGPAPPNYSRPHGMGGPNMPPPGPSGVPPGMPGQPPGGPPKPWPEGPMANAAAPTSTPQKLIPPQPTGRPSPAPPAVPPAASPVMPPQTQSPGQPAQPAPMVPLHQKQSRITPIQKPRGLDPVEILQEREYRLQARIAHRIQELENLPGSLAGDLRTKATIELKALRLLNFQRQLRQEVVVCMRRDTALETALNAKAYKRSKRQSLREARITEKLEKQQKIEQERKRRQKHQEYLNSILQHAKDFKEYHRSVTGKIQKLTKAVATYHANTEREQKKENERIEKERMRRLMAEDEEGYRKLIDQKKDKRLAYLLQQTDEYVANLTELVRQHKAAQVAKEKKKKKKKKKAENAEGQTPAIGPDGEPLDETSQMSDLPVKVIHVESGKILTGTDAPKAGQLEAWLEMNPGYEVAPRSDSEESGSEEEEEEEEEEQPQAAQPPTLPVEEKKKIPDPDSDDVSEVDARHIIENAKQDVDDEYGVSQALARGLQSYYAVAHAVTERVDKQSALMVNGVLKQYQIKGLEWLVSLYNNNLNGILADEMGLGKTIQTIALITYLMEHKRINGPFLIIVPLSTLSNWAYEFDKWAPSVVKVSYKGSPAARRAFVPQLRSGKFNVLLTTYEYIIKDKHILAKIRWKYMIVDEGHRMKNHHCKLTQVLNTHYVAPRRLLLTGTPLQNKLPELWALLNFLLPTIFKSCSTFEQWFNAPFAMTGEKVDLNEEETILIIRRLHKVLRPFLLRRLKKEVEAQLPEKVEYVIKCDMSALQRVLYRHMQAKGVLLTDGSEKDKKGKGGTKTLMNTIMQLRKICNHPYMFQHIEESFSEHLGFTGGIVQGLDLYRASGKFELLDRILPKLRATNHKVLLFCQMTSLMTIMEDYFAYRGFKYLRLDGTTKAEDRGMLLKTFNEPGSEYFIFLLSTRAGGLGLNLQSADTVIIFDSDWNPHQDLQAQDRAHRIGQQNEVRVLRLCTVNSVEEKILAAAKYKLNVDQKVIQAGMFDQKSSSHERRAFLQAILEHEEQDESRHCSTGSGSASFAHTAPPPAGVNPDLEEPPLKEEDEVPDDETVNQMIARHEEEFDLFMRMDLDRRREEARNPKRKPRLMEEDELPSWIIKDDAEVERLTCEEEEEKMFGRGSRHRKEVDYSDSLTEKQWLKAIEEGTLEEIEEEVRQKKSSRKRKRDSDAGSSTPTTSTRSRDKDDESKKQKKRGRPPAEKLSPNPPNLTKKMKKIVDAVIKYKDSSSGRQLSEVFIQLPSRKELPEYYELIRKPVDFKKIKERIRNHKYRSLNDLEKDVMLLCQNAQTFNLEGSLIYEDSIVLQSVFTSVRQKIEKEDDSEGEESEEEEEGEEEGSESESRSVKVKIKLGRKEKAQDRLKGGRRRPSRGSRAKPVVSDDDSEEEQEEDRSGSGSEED", "experiment": "SMARCA4 Western blot MV4-11 degradation", "conditions": "MV4-11 cells, 24 h; read-out: SMARCA4 MSD MV411 degradation 24 h: Mean external-Abs DC50", "procedure": "as §1, §2, §3"}},
  "data": [
    {"smiles": "Cc1ncsc1-c1ccc(CNC(=O)[C@@H]2C[C@@H](O)CN2C(=O)C(c2cc(O[C@H]3CC[C@H](N4CCC(c5cnc(N6C7CCC6CN(c6cc(-c8ccccc8O)nnc6N)C7)nc5)CC4)CC3)no2)C(C)C)cc1", "note": "(stereo partly drawn) [I-17, (2S,4R)-1-(2-(3-(((1r,4S)-4-(4-(2-(3-(3-amino-6-(2-hydroxyphenyl)pyridazin-4-yl)-3,8-diazabicyclo[3.2.1]octan-8-yl)pyrimidin-5-yl)piperidin-1-yl)cyclohexyl)oxy)isoxazol-5-yl)-3-methylbutanoyl)-4-hydroxy-N-(4-(4-methylthiazol-5-yl)benzyl)pyrrolidine-2-carboxamide]", "values": [
      {"measurement": "Dmax", "setting": "SMARCA2 [1]", "value": "> 90", "unit": "%"},
      {"measurement": "DC50", "setting": "SMARCA2 [1]", "value": "< 100", "unit": "nM"},
      {"measurement": "Dmax", "setting": "SMARCA2 [2]", "value": "> 90", "unit": "%"},
      {"measurement": "DC50", "setting": "SMARCA2 [2]", "value": "< 100", "unit": "nM"}
    ]},
    {"smiles": "Cc1ncsc1-c1ccc(CNC(=O)[C@@H]2C[C@@H](O)CN2C(=O)C(c2cc(O[C@H]3CC[C@@H](N4CCC(c5cnc(N6C7CCC6CN(c6cc(-c8ccccc8O)nnc6N)C7)nc5)CC4)CC3)no2)C(C)C)cc1", "note": "(stereo partly drawn) [I-18, (2S,4R)-1-(2-(3-(((1s,4R)-4-(4-(2-(3-(3-amino-6-(2-hydroxyphenyl)pyridazin-4-yl)-3,8-diazabicyclo[3.2.1]octan-8-yl)pyrimidin-5-yl)piperidin-1-yl)cyclohexyl)oxy)isoxazol-5-yl)-3-methylbutanoyl)-4-hydroxy-N-(4-(4-methylthiazol-5-yl)benzyl)pyrrolidine-2-carboxamide]", "values": [
      {"measurement": "Dmax", "setting": "SMARCA2 [1]", "value": "> 90", "unit": "%"},
      {"measurement": "DC50", "setting": "SMARCA2 [1]", "value": "< 100", "unit": "nM"},
      {"measurement": "Dmax", "setting": "SMARCA2 [2]", "value": "> 90", "unit": "%"},
      {"measurement": "DC50", "setting": "SMARCA2 [2]", "value": "< 100", "unit": "nM"}
    ]},
    {"smiles": "Cc1ncsc1-c1ccc(CNC(=O)[C@@H]2C[C@@H](O)CN2C(=O)C(c2cc([C@H]3CC[C@@H](N4CCC(c5cnc(N6C7CCC6CN(c6cc(-c8ccccc8O)nnc6N)C7)nc5)CC4)CC3)no2)C(C)C)cc1", "note": "(stereo partly drawn) [I-19, (2S,4R)-1-(2-(3-(4-(4-(2-(3-(3-amino-6-(2-hydroxyphenyl)pyridazin-4-yl)-3,8-diazabicyclo[3.2.1]octan-8-yl)pyrimidin-5-yl)piperidin-1-yl)cyclohexyl)isoxazol-5-yl)-3-methylbutanoyl)-4-hydroxy-N-(4-(4-methylthiazol-5-yl)benzyl)pyrrolidine-2-carboxamide]", "values": [
      {"measurement": "Dmax", "setting": "SMARCA2 [1]", "value": "> 90", "unit": "%"},
      {"measurement": "DC50", "setting": "SMARCA2 [1]", "value": "< 100", "unit": "nM"},
      {"measurement": "Dmax", "setting": "SMARCA2 [2]", "value": "> 90", "unit": "%"},
      {"measurement": "DC50", "setting": "SMARCA2 [2]", "value": "< 100", "unit": "nM"}
    ]},
    {"smiles": "Cc1ncsc1-c1ccc(CNC(=O)[C@@H]2C[C@@H](O)CN2C(=O)C(c2cc([C@H]3CC[C@H](N4CCC(c5cnc(N6C7CCC6CN(c6cc(-c8ccccc8O)nnc6N)C7)nc5)CC4)CC3)no2)C(C)C)cc1", "note": "(stereo partly drawn) [I-20, (2S,4R)-1-(2-(3-(4-(4-(2-(3-(3-amino-6-(2-hydroxyphenyl)pyridazin-4-yl)-3,8-diazabicyclo[3.2.1]octan-8-yl)pyrimidin-5-yl)piperidin-1-yl)cyclohexyl)isoxazol-5-yl)-3-methylbutanoyl)-4-hydroxy-N-(4-(4-methylthiazol-5-yl)benzyl)pyrrolidine-2-carboxamide]", "values": [
      {"measurement": "Dmax", "setting": "SMARCA2 [2]", "value": "> 90", "unit": "%"},
      {"measurement": "DC50", "setting": "SMARCA2 [2]", "value": "< 100", "unit": "nM"}
    ]},
    {"smiles": "Cc1ncsc1-c1cnc(CNC(=O)[C@@H]2C[C@@H](O)CN2C(=O)[C@@H](NC(=O)[C@H]2CC3(C2)C[C@H](N2CCC(c4ccc(N5C6CCC5CN(c5cc(-c7ccccc7O)nnc5N)C6)cc4)CC2)C3)C(C)(C)C)nc1", "note": "(stereo partly drawn) [I-26, (2S,4R)-1-((2S)-2-(6-(4-(4-(3-(3-amino-6-(2-hydroxyphenyl)pyridazin-4-yl)-3,8-diazabicyclo [3.2.1]octan-8-yl)phenyl)piperidin-1-yl)spiro[3.3]heptane-2-carboxamido)-3,3-dimethylbutanoyl)-4-hydroxy-N-((5-(4-methylthiazol-5-yl)pyrimidin-2-yl)methyl)pyrrolidine-2-carboxamide]", "values": [
      {"measurement": "DC50", "setting": "SMARCA2 [2]", "value": "> 1000", "unit": "nM"},
      {"measurement": "DC50", "setting": "SMARCA4", "value": "> 1000", "unit": "nM"}
    ]},
    {"smiles": "Cc1ncsc1-c1cnc(CNC(=O)[C@@H]2C[C@@H](O)CN2C(=O)[C@@H](NC(=O)[C@H]2CC3(C2)C[C@H](N2CCC(c4ccc(N5C6CCC5CN(c5cc(-c7ccccc7O)nnc5N)C6)cc4)CC2)C3)C(C)(C)C)cn1", "note": "(stereo partly drawn) [I-30, (2S,4R)-1-((2S)-2-(6-(4-(4-(3-(3-amino-6-(2-hydroxyphenyl)pyridazin-4-yl)-3,8-diazabicyclo[3.2.1]octan-8-yl)phenyl)piperidin-1-yl)spiro[3.3]heptane-2-carboxamido)-3,3-dimethylbutanoyl)-4-hydroxy-N-((5-(4-methylthiazol-5-yl)pyrazin-2-yl)methyl)pyrrolidine-2-carboxamide]", "values": [
      {"measurement": "DC50", "setting": "SMARCA2 [2]", "value": "> 1000", "unit": "nM"},
      {"measurement": "DC50", "setting": "SMARCA4", "value": "> 1000", "unit": "nM"}
    ]},
    {"smiles": "Cc1nccn1-c1ccc(CNC(=O)[C@@H]2C[C@@H](O)CN2C(=O)[C@@H](NC(=O)[C@H]2CC3(C2)C[C@H](N2CCC(c4cnc(N5C6CCC5CN(c5cc(-c7ccccc7O)nnc5N)C6)nc4)CC2)C3)C(C)(C)C)cc1", "note": "(stereo partly drawn) [I-34, (2S,4R)-1-((2S)-2-(6-(4-(2-(3-(3-amino-6-(2-hydroxyphenyl)pyridazin-4-yl)-3,8-diazabicyclo[3.2.1]octan-8-yl)pyrimidin-5-yl)piperidin-1-yl)spiro[3.3]heptane-2-carboxamido)-3,3-dimethylbutanoyl)-4-hydroxy-N-(4-(2-methyl-1H-imidazol-1-yl)benzyl-)pyrrolidine-2-carboxamide]", "values": [
      {"measurement": "DC50", "setting": "SMARCA2 [1]", "value": "100 to 500", "unit": "nM"},
      {"measurement": "DC50", "setting": "SMARCA4", "value": "> 1000", "unit": "nM"}
    ]},
    {"smiles": "Cc1ncsc1-c1ccc(CNC(=O)[C@@H]2C[C@@H](O)CN2C(=O)C(c2cc(N3CCC(CCCN4CCC(c5cnc(N6C7CCC6CN(c6cc(-c8ccccc8O)nnc6N)C7)nc5)CC4)CC3)no2)C(C)C)cc1", "note": "(stereo partly drawn) [I-64]", "values": [
      {"measurement": "Dmax", "setting": "SMARCA2 [1]", "value": "> 90", "unit": "%"},
      {"measurement": "DC50", "setting": "SMARCA2 [1]", "value": "< 100", "unit": "nM"},
      {"measurement": "Dmax", "setting": "SMARCA2 [2]", "value": "> 90", "unit": "%"},
      {"measurement": "DC50", "setting": "SMARCA2 [2]", "value": "< 100", "unit": "nM"}
    ]}
  ]
}
